Results taken from ChEMBL document CHEMBL1147873, “Synthesis and biological evaluation of novel analogues of dictyostatin” (Bioorg Med Chem Lett, 2007).

Legend:
Format in all cases: functional, cell-based
[1] = system: NCI; assay: Cytotoxicity against human Taxol-adriamycin-resistant NCI cells after 72 hrs by MTT assay
[2] = system: PANC-1; assay: Cytotoxicity against human PANC1 cells after 72 hrs by MTT assay; details: PANC-1, 72 h
[3] = system: ASPC1; assay: Cytotoxicity against human AsPC1 cells after 72 hrs by MTT assay; details: ASPC1, 72 h
[4] = system: DLD-1; assay: Cytotoxicity against human DLD1 cells after 72 hrs by MTT assay; details: DLD-1, 72 h

Row | Structure (SMILES) | IC50 [1] [nM] | IC50 [2] [nM] | IC50 [3] [nM] | IC50 [4] [nM]
1 | C=C/C=C\[C@H](C)[C@@H]1OC(=O)/C=C\C=C\[C@@H](C)[C@@H](O)C[C@H](OC)/C=C\[C@H](C)[C@H](O)[C@@H](C)C[C@@H](C)CC[C@@H](O)[C@@H]1C | 8.2 | 9.7 | 31 | 2.4
2 | C=C/C=C\[C@H](C)[C@@H]1OC(=O)/C=C\C=C\[C@@H](C)[C@@H](O)C[C@@H](O)/C=C\[C@H](C)[C@H](O)[C@@H](C)CCCC[C@@H](O)[C@@H]1C | 2100 | 1500 | 2100 | 790
3 | C=C/C=C\[C@H](C)[C@H](OC(N)=O)[C@@H](C)[C@H](O)[C@@H](C)C/C(C)=C\[C@H](C)[C@@H](O)[C@@H](C)/C=C\[C@@H](O)C[C@@H]1OC(=O)[C@H](C)[C@@H](O)[C@H]1C [DISERMOLIDE] | 160 |  |  | 
4 | C=C/C=C\[C@H](C)[C@@H]1OC(=O)/C=C\C=C\[C@@H](C)[C@@H](O)C[C@@H](O)/C=C\[C@H](C)[C@H](O)[C@@H](C)C[C@@H](C)CC[C@@H](O)[C@@H]1C | 1100 | 240 | 410 | 150
5 | C=C/C=C\[C@H](C)[C@@H]1OC(=O)/C=C\C=C\[C@@H](C)[C@@H](O)C[C@H](O)/C=C\[C@H](C)[C@H](O)[C@@H](C)CCCC[C@@H](O)[C@@H]1C | 1500 | 130 | 170 | 85
6 | C=C/C=C\[C@H](C)[C@@H]1OC(=O)/C=C\C=C\[C@@H](C)[C@@H](O)C[C@H](O)/C=C\[C@H](C)[C@H](O)[C@@H](C)C[C@@H](C)CC[C@@H](O)[C@@H]1C [DICTYOSTATIN] | 9.8 |  |  | 
